Experimental data from patent publication US20020098148A1, “NON-STEROIDAL RADIOLABELED AGONIST/ANTAGONIST COMPOUNDS AND THEIR USE IN PROSTATE CANCER IMAGING” (priority 1997, published 2002).

Columns and labels:
[1] = Cockshott et al. 1991; cited from earlier work
[2] = molecular target: T1, androgen receptor (AR) (Rattus norvegicus, UniProt P15207); experiment: AR competitive binding with 3H-mibolerone in cytosol
T1 construct: The minimum concentration of ^3H-MIB to saturate AR sites in the cytosol preparation was 1 nM; from tissue; host or cells: cytosol
T1 sequence (P15207 1-902): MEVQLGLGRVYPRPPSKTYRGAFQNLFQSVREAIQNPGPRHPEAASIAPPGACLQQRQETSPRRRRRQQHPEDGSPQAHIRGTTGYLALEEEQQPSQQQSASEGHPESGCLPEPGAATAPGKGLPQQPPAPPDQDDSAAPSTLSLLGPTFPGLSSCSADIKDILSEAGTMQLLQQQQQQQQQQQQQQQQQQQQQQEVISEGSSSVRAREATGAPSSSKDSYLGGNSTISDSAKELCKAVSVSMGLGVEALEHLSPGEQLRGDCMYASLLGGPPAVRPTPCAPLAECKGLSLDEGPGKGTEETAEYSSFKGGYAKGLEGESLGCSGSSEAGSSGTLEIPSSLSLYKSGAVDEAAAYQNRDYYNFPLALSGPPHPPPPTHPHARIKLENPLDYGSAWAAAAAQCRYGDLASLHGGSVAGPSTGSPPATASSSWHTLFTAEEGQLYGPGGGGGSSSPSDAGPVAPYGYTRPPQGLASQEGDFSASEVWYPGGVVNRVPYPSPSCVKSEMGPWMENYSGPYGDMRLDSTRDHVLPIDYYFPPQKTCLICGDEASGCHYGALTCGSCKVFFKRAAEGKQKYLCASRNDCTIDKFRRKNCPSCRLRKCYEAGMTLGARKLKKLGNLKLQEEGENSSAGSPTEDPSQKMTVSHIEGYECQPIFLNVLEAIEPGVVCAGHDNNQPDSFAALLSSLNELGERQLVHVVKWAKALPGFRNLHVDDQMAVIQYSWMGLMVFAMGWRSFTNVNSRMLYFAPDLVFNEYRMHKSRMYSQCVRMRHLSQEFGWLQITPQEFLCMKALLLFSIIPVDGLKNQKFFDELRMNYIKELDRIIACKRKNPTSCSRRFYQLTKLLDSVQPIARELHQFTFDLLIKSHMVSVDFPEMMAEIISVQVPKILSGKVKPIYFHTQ
Protocol: For the determination of non-specific binding, separate experiments were conducted by adding 1,000 nM MIB to the incubate. Unless otherwise indicated, all experiments were repeated three times or more. […] Radioactivity was counted in a liquid scintillation counter (Model LS6800, Beckman Instruments Inc., Palo Alto, Calif.).
To determine the Kd of MIB, data were analyzed using a modified form of the Scatchard equation:
where B was the concentration of specifically-bound ^3H-MIB in the incubate, F was the concentration of free ^3H-MIB in the incubate, and Bmax was the maximum concentration of ^3H-MIB specifically bound to AR, which is also the concentration of available AR binding sites in the incubate. […]
For competition binding experiments, competitive displacement curves were constructed for each ligand with percent specific binding (specific binding of ^3H-MIB at a particular ligand concentration expressed as a percentage of the specific binding of ^3H-MIB in the absence of ligand) on the vertical axis and ligand concentration on the horizontal axis. […]
where B0 is the specific binding of ^3H-MIB in the absence of ligand, and C is the ligand concentration. Binding affinities of the ligands were then compared using the equilibrium dissociation constant (Ki) of each ligand, as calculated using the equation below: […]

Compound | share of radioactivity in plasma accounted for by parent compound [1] | Ki [2] [nM] | Ki value lower than that of R-Bicalutamide ([2]; R-isomer) [%]
CC(O)(CS(=O)(=O)c1ccc(F)cc1)C(=O)Nc1ccc(C#N)c(C(F)(F)F)c1 (racemic) [racemic ^14C-labeled bicalutamide, bicalutamide] | virtually all of the radioactivity in plasma | – | –
C[C@](O)(CS(=O)(=O)c1ccc(I)cc1)C(=O)Nc1ccc(C#N)c(C(F)(F)F)c1 [Compound 2] | – | 3.1 | 73
